From ChEMBL document CHEMBL4196079, “Molecular interaction of novel benzothiazolyl triazolium analogues with calf thymus DNA and HSA-their biological investigation as potent antimicrobial agents” (Eur J Med Chem, 2018)
In brackets after ≈: the same amount, converted by molar mass.

Columns and labels:
Aspergillus flavus = test: Antifungal activity against Aspergillus flavus after 24 hrs by NCCLS micro broth dilution method; format: functional
Escherichia coli [1] = test: Antibacterial activity against Escherichia coli JM109 after 24 hrs by NCCLS micro broth dilution method; format: functional; conditions: JM109, 24 h
Pichia norvegensis = test: Antifungal activity against Candida mycoderma after 24 hrs by NCCLS micro broth dilution method; format: functional
Candida albicans = test: Antifungal activity against Candida albicans ATCC 76615 after 24 hrs by NCCLS micro broth dilution method; format: functional; conditions: ATCC 76615, 24 h
Shigella dysenteriae = test: Antibacterial activity against Shigella dysenteriae after 24 hrs by NCCLS micro broth dilution method; format: functional
Staphylococcus aureus [2] = test: Antibacterial activity against methicillin-resistant Staphylococcus aureus N315 after 24 hrs by NCCLS micro broth dilution method; format: functional; conditions: N315, 24 h
Saccharomyces cerevisiae [3] = test: Potency index, ratio of fluconazole MIC to compound MIC for antifungal activity against Saccharomyces cerevisiae; format: functional
Bacillus = test: Antibacterial activity against Bacillus proteus ATCC 13315 after 24 hrs by NCCLS micro broth dilution method; format: functional; conditions: ATCC 13315, 24 h
Bacillus subtilis = test: Antibacterial activity against Bacillus subtilis ATCC 21216 after 24 hrs by NCCLS micro broth dilution method; format: functional; conditions: ATCC 21216, 24 h
Salmonella typhi = test: Antibacterial activity against Salmonella typhi after 24 hrs by NCCLS micro broth dilution method; format: functional, Salmonella enterica subsp. enterica serovar Typhi; conditions: Salmonella enterica
Pseudomonas aeruginosa = test: Antibacterial activity against Pseudomonas aeruginosa ATCC 27853 after 24 hrs by NCCLS micro broth dilution method; format: functional; conditions: ATCC 27853, 24 h
Staphylococcus aureus [4] = test: Antibacterial activity against Staphylococcus aureus ATCC 25923 after 24 hrs by NCCLS micro broth dilution method; format: functional; conditions: ATCC 25923, 24 h
Cyberlindnera jadinii = test: Antifungal activity against Candida utilis after 24 hrs by NCCLS micro broth dilution method; format: functional; conditions: Williopsis jadinii
Micrococcus luteus = test: Antibacterial activity against Micrococcus luteus ATCC 4698 after 24 hrs by micro broth dilution method; format: functional; conditions: ATCC 4698, 24 h
Escherichia coli [5] = test: Antibacterial activity against Escherichia coli DH52 after 24 hrs by NCCLS micro broth dilution method; format: functional; conditions: DH52, 24 h
Saccharomyces cerevisiae [6] = test: Antifungal activity against Saccharomyces cerevisiae after 24 hrs by NCCLS micro broth dilution method; format: functional

SMILES | MIC (Aspergillus flavus) | MIC (Escherichia coli [1]) | MIC (Pichia norvegensis) | MIC (Candida albicans) | MIC (Shigella dysenteriae) | MIC (Staphylococcus aureus [2]) | Ratio (Saccharomyces cerevisiae [3]) | MIC (Bacillus) | MIC (Bacillus subtilis) | MIC (Salmonella typhi) | MIC (Pseudomonas aeruginosa) | MIC (Staphylococcus aureus [4]) | MIC (Cyberlindnera jadinii) | MIC (Micrococcus luteus) | MIC (Escherichia coli [5]) | MIC (Saccharomyces cerevisiae [6])
CCCCCCn1cc(COCc2c(-c3ccccc3)nc3sc4ccccc4n23)nn1 | 32 µg/mL (≈ 71.8 µM) | 32 µg/mL (≈ 71.8 µM) | 32 µg/mL (≈ 71.8 µM) | 8 µg/mL (≈ 18 µM) | 2 µg/mL (≈ 4.49 µM) | 16 µg/mL (≈ 35.9 µM) | 2 | 8 µg/mL (≈ 18 µM) | 16 µg/mL (≈ 35.9 µM) | 16 µg/mL (≈ 35.9 µM) | 16 µg/mL (≈ 35.9 µM) | 8 µg/mL (≈ 18 µM) | 4 µg/mL (≈ 8.98 µM) | 2 µg/mL (≈ 4.49 µM) | 32 µg/mL (≈ 71.8 µM) | 8 µg/mL (≈ 18 µM)
CCOc1ccc2c(c1)sc1nc(-c3ccccc3)c(COCc3cn(Cc4ccc(Cl)cc4Cl)nn3)n12 | 64 µg/mL (≈ 113 µM) | 64 µg/mL (≈ 113 µM) | 4 µg/mL (≈ 7.09 µM) | 1 µg/mL (≈ 1.77 µM) | 32 µg/mL (≈ 56.7 µM) | 64 µg/mL (≈ 113 µM) | – | 16 µg/mL (≈ 28.3 µM) | 32 µg/mL (≈ 56.7 µM) | 64 µg/mL (≈ 113 µM) | 32 µg/mL (≈ 56.7 µM) | 64 µg/mL (≈ 113 µM) | 8 µg/mL (≈ 14.2 µM) | 64 µg/mL (≈ 113 µM) | 64 µg/mL (≈ 113 µM) | 32 µg/mL (≈ 56.7 µM)
CCOc1ccc2c(c1)sc1nc(-c3ccccc3)c(COCc3cn(Cc4ccccc4Cl)nn3)n12 | 128 µg/mL (≈ 241 µM) | 128 µg/mL (≈ 241 µM) | 32 µg/mL (≈ 60.4 µM) | 8 µg/mL (≈ 15.1 µM) | 128 µg/mL (≈ 241 µM) | 128 µg/mL (≈ 241 µM) | – | 512 µg/mL (≈ 966 µM) | 128 µg/mL (≈ 241 µM) | 16 µg/mL (≈ 30.2 µM) | 64 µg/mL (≈ 121 µM) | 64 µg/mL (≈ 121 µM) | 32 µg/mL (≈ 60.4 µM) | 128 µg/mL (≈ 241 µM) | 128 µg/mL (≈ 241 µM) | 64 µg/mL (≈ 121 µM)
CCOc1ccc2c(c1)sc1nc(-c3ccccc3)c(COCc3cn(Cc4ccc(F)cc4)nn3)n12 | 64 µg/mL (≈ 125 µM) | 64 µg/mL (≈ 125 µM) | 8 µg/mL (≈ 15.6 µM) | 8 µg/mL (≈ 15.6 µM) | 16 µg/mL (≈ 31.2 µM) | 128 µg/mL (≈ 249 µM) | – | 64 µg/mL (≈ 125 µM) | 64 µg/mL (≈ 125 µM) | 32 µg/mL (≈ 62.3 µM) | 64 µg/mL (≈ 125 µM) | 128 µg/mL (≈ 249 µM) | 16 µg/mL (≈ 31.2 µM) | 128 µg/mL (≈ 249 µM) | 32 µg/mL (≈ 62.3 µM) | 32 µg/mL (≈ 62.3 µM)
CCCCCCCn1cc(COCc2c(-c3ccccc3)nc3sc4cc(OCC)ccc4n23)nn1 | 128 µg/mL (≈ 254 µM) | 64 µg/mL (≈ 127 µM) | 32 µg/mL (≈ 63.5 µM) | 32 µg/mL (≈ 63.5 µM) | 128 µg/mL (≈ 254 µM) | 64 µg/mL (≈ 127 µM) | – | 128 µg/mL (≈ 254 µM) | 128 µg/mL (≈ 254 µM) | 128 µg/mL (≈ 254 µM) | 128 µg/mL (≈ 254 µM) | 128 µg/mL (≈ 254 µM) | 64 µg/mL (≈ 127 µM) | 128 µg/mL (≈ 254 µM) | 128 µg/mL (≈ 254 µM) | 64 µg/mL (≈ 127 µM)
CCCCCCCn1cc(COCc2c(-c3ccccc3)nc3sc4ccccc4n23)nn1 | 256 µg/mL (≈ 557 µM) | 128 µg/mL (≈ 278 µM) | 32 µg/mL (≈ 69.6 µM) | 32 µg/mL (≈ 69.6 µM) | 128 µg/mL (≈ 278 µM) | 128 µg/mL (≈ 278 µM) | – | 64 µg/mL (≈ 139 µM) | 128 µg/mL (≈ 278 µM) | 64 µg/mL (≈ 139 µM) | 64 µg/mL (≈ 139 µM) | 128 µg/mL (≈ 278 µM) | 16 µg/mL (≈ 34.8 µM) | 128 µg/mL (≈ 278 µM) | 64 µg/mL (≈ 139 µM) | 32 µg/mL (≈ 69.6 µM)
Clc1ccccc1Cn1cc(COCc2c(-c3ccccc3)nc3sc4ccccc4n23)nn1 | 128 µg/mL (≈ 263 µM) | 8 µg/mL (≈ 16.5 µM) | 8 µg/mL (≈ 16.5 µM) | 16 µg/mL (≈ 32.9 µM) | 64 µg/mL (≈ 132 µM) | 64 µg/mL (≈ 132 µM) | – | 64 µg/mL (≈ 132 µM) | 128 µg/mL (≈ 263 µM) | 64 µg/mL (≈ 132 µM) | 128 µg/mL (≈ 263 µM) | 64 µg/mL (≈ 132 µM) | 64 µg/mL (≈ 132 µM) | 128 µg/mL (≈ 263 µM) | 128 µg/mL (≈ 263 µM) | 64 µg/mL (≈ 132 µM)
Fc1ccccc1Cn1cc(COCc2c(-c3ccccc3)nc3sc4ccccc4n23)nn1 | 128 µg/mL (≈ 273 µM) | 128 µg/mL (≈ 273 µM) | 16 µg/mL (≈ 34.1 µM) | 32 µg/mL (≈ 68.2 µM) | 128 µg/mL (≈ 273 µM) | 32 µg/mL (≈ 68.2 µM) | – | 128 µg/mL (≈ 273 µM) | 128 µg/mL (≈ 273 µM) | 64 µg/mL (≈ 136 µM) | 128 µg/mL (≈ 273 µM) | 64 µg/mL (≈ 136 µM) | 16 µg/mL (≈ 34.1 µM) | 64 µg/mL (≈ 136 µM) | 128 µg/mL (≈ 273 µM) | 64 µg/mL (≈ 136 µM)
CCOc1ccc2c(c1)sc1nc(-c3ccccc3)c(COCc3cn(Cc4ccc([N+](=O)[O-])cc4)nn3)n12 | 128 µg/mL (≈ 237 µM) | 2 µg/mL (≈ 3.7 µM) | 8 µg/mL (≈ 14.8 µM) | 32 µg/mL (≈ 59.2 µM) | 128 µg/mL (≈ 237 µM) | 128 µg/mL (≈ 237 µM) | – | 32 µg/mL (≈ 59.2 µM) | 256 µg/mL (≈ 474 µM) | 4 µg/mL (≈ 7.4 µM) | 128 µg/mL (≈ 237 µM) | 128 µg/mL (≈ 237 µM) | 4 µg/mL (≈ 7.4 µM) | 512 µg/mL (≈ 947 µM) | 128 µg/mL (≈ 237 µM) | 16 µg/mL (≈ 29.6 µM)
CCCCCCn1cc(COCc2c(-c3ccccc3)nc3sc4cc(OCC)ccc4n23)nn1 | 128 µg/mL (≈ 261 µM) | 64 µg/mL (≈ 131 µM) | 16 µg/mL (≈ 32.7 µM) | 64 µg/mL (≈ 131 µM) | 128 µg/mL (≈ 261 µM) | 64 µg/mL (≈ 131 µM) | – | 128 µg/mL (≈ 261 µM) | 128 µg/mL (≈ 261 µM) | 128 µg/mL (≈ 261 µM) | 128 µg/mL (≈ 261 µM) | 128 µg/mL (≈ 261 µM) | 16 µg/mL (≈ 32.7 µM) | 128 µg/mL (≈ 261 µM) | 128 µg/mL (≈ 261 µM) | 32 µg/mL (≈ 65.4 µM)
CCCCCn1cc(COCc2c(-c3ccccc3)nc3sc4ccccc4n23)nn1 | 256 µg/mL (≈ 593 µM) | 64 µg/mL (≈ 148 µM) | 16 µg/mL (≈ 37.1 µM) | 32 µg/mL (≈ 74.1 µM) | 4 µg/mL (≈ 9.27 µM) | 8 µg/mL (≈ 18.5 µM) | – | 64 µg/mL (≈ 148 µM) | 64 µg/mL (≈ 148 µM) | 4 µg/mL (≈ 9.27 µM) | 128 µg/mL (≈ 297 µM) | 64 µg/mL (≈ 148 µM) | 8 µg/mL (≈ 18.5 µM) | 128 µg/mL (≈ 297 µM) | 32 µg/mL (≈ 74.1 µM) | 32 µg/mL (≈ 74.1 µM)
